Counter-ions that a name gives are not always drawn.
target: T1, PAF receptor (Oryctolagus cuniculus, UniProt G1TEI7); experiment: PAF receptor binding assay ([3H]C18-PAF, rabbit platelet membranes); settings: inhibition of specific binding of 0.6 nM [3H]C18-PAF to rabbit platelet membranes, 60 min, room temperature; Ki calculated from IC50 by Cheng and Prusoff; read-out: PAF Receptor Binding Activity K1
T1 construct: platelet membranes where prepared by centrifugation and washing; tissue Pel-Freez (Rogers, AR) (whole rabbit blood); host or cells: rabbit platelet membranes
T1 sequence (G1TEI7 1-342): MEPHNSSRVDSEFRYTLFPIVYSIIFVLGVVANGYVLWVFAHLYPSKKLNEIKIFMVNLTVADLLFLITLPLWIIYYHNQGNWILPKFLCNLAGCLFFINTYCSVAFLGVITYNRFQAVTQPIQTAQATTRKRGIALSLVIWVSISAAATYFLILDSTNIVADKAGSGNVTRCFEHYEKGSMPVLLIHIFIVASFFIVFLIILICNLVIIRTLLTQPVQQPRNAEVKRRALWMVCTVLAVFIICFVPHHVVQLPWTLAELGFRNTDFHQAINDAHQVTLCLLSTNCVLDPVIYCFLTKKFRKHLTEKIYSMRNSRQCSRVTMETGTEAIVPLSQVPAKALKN
Description: The ability of representative compounds of the present invention to inhibit PAF activity was determined in an in vitro test using the following method.
Citrated whole rabbit blood was obtained from Pel-Freez (Rogers, AR). Rabbit platelets where prepared by centrifugation and washing. The platelets where lysed by freeze-thawing and sonication; platelet membranes where prepared by centrifugation and washing. Final membrane preparations where stored frozen in 10 mM Tris/5 mM MgCl2 /2 mM EDTA (TME buffer, pH 7.0) with 0.25 M sucrose added for membrane stabilization.
The final volume of the assay was 100 μl. The assay was conducted in Millititre-GV™ (Millipore Corp.) filtration plates; incubation time was for 60 minutes at room temperature (22°-23° C.). "Specific binding" was operationally defined as the arithmetic difference between "total binding" of 0.6 nM [^3 H]C18 -PAF (in the absence of added PAF) and "nonspecific binding" (in the presence of 1 μM PAF). After the prescribed incubation, platelet membranes where filtered under vacuum and washed with 1 millilitre of "binding buffer". The filters was dried and removed. The bound radioactivity was quantitated with a Berthold TLC-Linear Analyzer model LB2842.
Experiments where repeated at least once.

SMILES	Ki
COc1ccc(-c2ccc3c(C(=O)c4ccn5c4CSC5c4cccnc4)cn(C(=O)N(C)C)c3c2)cc1 (stereo not shown) [Example 40, 3-(Pyridin-3-yl)-7-[1-N,N-dimethylcarbamoyl-6-(4-methoxyphenyl)indol-3-ylcarbonyl]-1H,3H-pyrrolo[1,2-c]thiazole]	0.026 µM
CC(C)(C)OC(=O)NCCn1cc(C(=O)c2ccn3c2CSC3c2cccnc2)c2ccc(-c3ccc(F)cc3)cc21 (stereo not shown) [Example 57]	0.038 µM
NCCn1cc(C(=O)c2ccn3c2CSC3c2cccnc2)c2ccc(-c3ccc(F)cc3)cc21 (stereo not shown) [Example 70, 3-(Pyridin-3-yl)-7-[1-(2-aminoethyl)-6-(4-fluorophenyl)indol-3-ylcarbonyl]-1H,3H-pyrrolo[1,2-c]thiazole Hydrochloride]	0.0026 µM
CN(C)C(=O)n1cc(C(=O)c2ccn3c2CSC3c2cccnc2)c2ccc(-c3cccc(S(N)(=O)=O)c3)cc21 (stereo not shown) [Example 80, 3-(Pyridin-3-yl)-7-[1-N,N-dimethylcarbamoyl-6-(3-aminosulfonylphenyl)indol-3-ylcarbonyl]-1H,3H-pyrrolo[1,2-c]thiazole]	0.045 µM

same assay, conditions: read-out: PAF Receptor Binding Activity K1

SMILES	Ki
CC1(C)SC(c2cccnc2)n2ccc(C(=O)c3c[nH]c4cc(-c5ccc(F)cc5)ccc34)c21 (stereo not shown) [Example 36, 1,1-Dimethyl-3-(pyridin-3-yl)-7-[6-(4-fluorophenyl)indol-3-ylcarbonyl]-1H,3H-pyrrolo[1,2-c]thiazole]	1.1 µM
NC(=O)n1cc(C(=O)c2ccn3c2CSC3c2cccnc2)c2ccc(OCc3ccccc3)cc21 (stereo not shown) [Example 37, 3-(Pyridin-3-yl)-7-(1-carbamoyl-6-phenylmethoxyindol-3-ylcarbonyl)-1H,3H-pyrrolo[1,2-c]thiazole]	0.01 µM
COc1ccc(-c2ccc3c(C(=O)c4ccn5c4CSC5c4cccnc4)c[nH]c3c2)cc1 (stereo not shown) [Example 38, 3-(Pyridin-3-yl)-7-[6-(4-methoxyphenyl)indol-3-yl]carbonyl-1H,3H-pyrrolo[1,2-c]thiazole]	1 µM
O=C(c1ccn2c1CSC2c1cccnc1)c1c[nH]c2cc(-c3cccnc3)ccc12 (stereo not shown) [Example 41]	2 µM
CNC(=O)n1cc(C(=O)c2ccn3c2CSC3c2cccnc2)c2ccc(-c3ccc(OC)cc3)cc21 (stereo not shown) [Example 43, 3-(Pyridin-3-yl)-7-[1-N-methylcarbamoyl-6-(4-methoxyphenyl)indol-3-ylcarbonyl]-1H,3H-pyrrolo[1,2-c]thiazole]	0.026 µM
CN(C)C(=O)n1cc(C(=O)c2ccn3c2CSC3c2ccc[n+]([O-])c2)c2ccccc21 (stereo not shown) [Example 44, 3-(1-Oxide-pyridin-3-yl)-7-(1-N,N-dimethylcarbamoylindol-3-ylcarbonyl)-1H,3H-pyrrolo[1,2-c]thiazole]	0.04 µM
COc1ccc(-c2ccc3c(C(=O)c4ccn5c4CSC5c4ccc[n+]([O-])c4)cn(C(=O)N(C)C)c3c2)cc1 (stereo not shown) [Example 45, 3-(1-Oxide-pyridin-3-yl)-7-[1-N,N-dimethylcarbamoyl-6-(4-methoxyphenyl)indol-3-ylcarbonyl]-1H,3H-pyrrolo[1,2-c]thiazole]	0.0041 µM
COC(=O)CCn1cc(C(=O)c2ccn3c2CSC3c2cccnc2)c2ccc(-c3ccc(F)cc3)cc21 (stereo not shown) [Example 46, 3-(Pyridin-3-yl)-7-[1-(2-carbomethoxyethyl)-6-(4-fluorophenyl)indol-3-ylcarbonyl]-1H,3H-pyrrolo[1,2-c]thiazole]	0.01 µM
O=C(c1ccn2c1CSC2c1cccnc1)c1c[nH]c2cc(Cl)ccc12 (stereo not shown) [Example 47, 3-(Pyridin-3-yl)-7-(6-chloroindol-3-ylcarbonyl)-1H,3H-pyrrolo[1,2-c]thiazole]	0.59 µM
COc1cc(-c2ccc3c(C(=O)c4ccn5c4CSC5c4cccnc4)cn(C(=O)N(C)C)c3c2)cc(OC)c1OC (stereo not shown) [Example 48, 3-(Pyridin-3-yl)-7-[1-N,N-dimethylcarbamoyl-6-(3,4,5-trimethoxyphenyl)indol-3-ylcarbonyl]-1H,3H-pyrrolo[1,2-c]thiazole]	0.008 µM
CS(=O)(=O)n1cc(C(=O)c2ccn3c2CSC3c2cccnc2)c2ccc(-c3ccc(F)cc3)cc21 (stereo not shown) [Example 51, 3-(Pyridin-3-yl)-7-[1-methanesulfonyl-6-(4-fluorophenyl)indol-3-ylcarbonyl]-1H,3-pyrrolo[1,2-c]thiazole]	0.12 µM
CN(C)C(=O)n1cc(C(=O)c2ccn3c2CSC3c2cccnc2)c2ccc(-c3ccccc3)cc21 (stereo not shown) [Example 52, 3-(Pyridin-3-yl)-7-(1-N,N-dimethylcarbamoyl-6-phenylindol-3-ylcarbonyl)-1H,3H-pyrrolo[1,2-c]thiazole Hydrochloride]	0.016 µM
CN(C)C(=O)Cn1cc(C(=O)c2ccn3c2CSC3c2cccnc2)c2ccc(-c3ccc(F)cc3)cc21 (stereo not shown) [Example 53, 3-(Pyridin-3-yl)-7-[1-(2-N,N-dimethylcarbamoylmethyl)-6-(4-fluorophenyl)indol-3-ylcarbonyl]-1H,3H-pyrrolo[1,2-c]thiazole]	0.0007 µM
CN(C)C(=O)n1cc(C(=O)c2ccn3c2CSC3c2ccc[n+]([O-])c2)c2ccc(-c3ccccc3)cc21 (stereo not shown) [Example 54, 3-(1-Oxide-pyridin-3-yl)-7-(1-N,N-dimethylcarbamoyl-6-phenylindol-3-ylcarbonyl)-1H,3H-pyrrolo[1,2-c]thiazole hydrochloride]	0.017 µM
Cn1cc(C(=O)c2ccn3c2CSC3c2ccc[n+]([O-])c2)c2ccc(OCc3ccccc3)cc21 (stereo not shown) [Example 58, 3-(1-Oxide-pyridin-3-yl)-7-(1-methyl-6-phenylmethoxyindol-3-ylcarbonyl)-1H,3H-pyrrolo[1,2-c]thiazole]	0.049 µM
CN(C)S(=O)(=O)n1cc(C(=O)c2ccn3c2CSC3c2ccc[n+]([O-])c2)c2ccc(-c3ccc(F)cc3)cc21 (stereo not shown) [Example 60, 3-(1-Oxide-pyridin-3-yl)-7-[1-N,N-dimethylsulfamyl-6-(4-fluorophenyl)indol-3-ylcarbonyl]-1H,3H-pyrrolo[1,2-c]thiazole]	0.21 µM
O=C(c1ccn2c1CSC2c1cccnc1)c1cn(S(=O)(=O)c2ccccc2)c2cc(-c3ccc(F)cc3)ccc12 (stereo not shown) [Example 61, 3-(Pyridin-3-yl)-7-[1-phenylsulfonyl-6-(4-fluorophenyl)indol-3-ylcarbonyl]-1H,3H-pyrrolo[1,2-c]thiazole]	1.1 µM
O=C(c1ccn2c1CSC2c1cccnc1)c1cn(C(=O)NCCO)c2cc(-c3ccc(F)cc3)ccc12 (stereo not shown) [Example 62, 3-(Pyridin-3-yl)-7-[1-N-(2-hydroxyethyl)carbamoyl-6-(4-fluorophenyl)indol-3-ylcarbonyl]-1H,3H-pyrrolo[1,2-c]thiazole]	0.0074 µM
O=C(c1ccn2c1CSC2c1cccnc1)c1c[nH]c2cc(Br)ccc12 (stereo not shown) [Example 63, 3-(Pyridin-3-yl)-7-(6-bromoindol-3-ylcarbonyl)-1H,3H-pyrrolo[1,2-c]thiazol]	0.58 µM
CN(C)C(=O)n1cc(C(=O)c2ccn3c2CSC3c2cccnc2)c2ccc(Cl)cc21 (stereo not shown) [Example 65, 3-(Pyridin-3-yl)-7-(1-N,N-dimethylcarbamoyl-6-chloroindol-3-ylcarbonyl)-1H,3H-pyrrolo[1,2-c]thiazole]	0.089 µM
CN(C)C(=O)n1cc(C(=O)c2ccn3c2CSC3c2ccc[n+]([O-])c2)c2ccc(Cl)cc21 (stereo not shown) [Example 66, 3-(1-Oxide-Pyridin-3-yl)-7-(1-N,N-dimethylcarbamoyl-6-chloroindol-3-ylcarbonyl)-1H,3H-pyrrolo[1,2-c]thiazole]	0.038 µM
NNC(=O)n1cc(C(=O)c2ccn3c2CSC3c2cccnc2)c2ccc(-c3ccc(F)cc3)cc21 (stereo not shown) [Example 69, 3-(Pyridin-3-yl)-7-[1-hydrazinocarbonyl-6-(4-fluorophenyl)indol-3-ylcarbonyl]-1H,3H-pyrrolo[1,2-c]thiazole]	0.025 µM
CCS(=O)(=O)n1cc(C(=O)c2ccn3c2CSC3c2cccnc2)c2ccc(-c3ccc(F)cc3)cc21 (stereo not shown) [Example 71, 3-(Pyridin-3-yl)-7-[1-ethanesulfonyl-6-[4-fluorophenyl)indol-3-ylcarbonyl]-1H,3H-pyrrolo[1,2-c]thiazole]	0.244 µM
O=C(c1ccn2c1CSC2c1ccc[n+]([O-])c1)c1cn(S(=O)(=O)c2ccccc2)c2cc(-c3ccc(F)cc3)ccc12 (stereo not shown) [Example 73, 3-(1 -Oxide-pyridin-3-yl)-7-[1-phenylsulfonyl-6-(4-fluorophenyl)indol-3-ylcarbonyl]-1H,3-pyrrolo[1,2-c]thiazole]	0.211 µM
CN(C)C(=O)Cn1cc(C(=O)c2ccn3c2CSC3c2ccc[n+]([O-])c2)c2ccc(-c3ccc(F)cc3)cc21 (stereo not shown) [Example 75, 3-(1-Oxide-pyridin-3-yl)-7-[1-(2-N,N-dimethylcarbamoylmethyl)-6-(4-fluorophenyl)indol-3-ylcarbonyl]-1H,3H-pyrrolo[1,2-c]thiazole]	0.0075 µM
NC(=O)n1cc(C(=O)c2ccn3c2CSC3c2cccnc2)c2ccc(-c3ccc(F)cc3)cc21 (stereo not shown) [Example 76, 3-(Pyridin-3-yl)-7-[1-carbamoyl-6-(4-fluorophenyl)indol-3-ylcarbonyl]-1H,3H-pyrrolo[1,2-c]thiazole]	0.0061 µM
NS(=O)(=O)CCn1cc(C(=O)c2ccn3c2CSC3c2ccc[n+]([O-])c2)c2ccc(-c3ccc(F)cc3)cc21 (stereo not shown) [Example 79, 3-(3-Oxide-pyridin-3-yl)-7-[1-(2-aminosulfonylethyl)-6-(4-fluorophenyl)indol-3-ylcarbonyl]-1H,3H-pyrrolo[1,2-c]thiazole]	0.018 µM

Reference: patent US5459152A, “Platelet activating factor antagonists” (Abbott Laboratories, priority 1993, dated 1995)
